Legend:
Format in all cases: functional, cell-based
[1] = test system: P388; experiment: Cytotoxicity against mouse P388 cells
[2] = test system: L1210; experiment: Cytotoxicity against mouse L1210 cells
[3] = test system: KB; experiment: Cytotoxicity against human KB cells

Measured: IC50

COC(=O)c1cc(C[C@]2(C)[C@@H](C)CC[C@]3(C)C(C)=CCC[C@@H]23)c(O)c(NC2=CC(=O)C(O)=C(C[C@]3(C)[C@@H](C)CC[C@]4(C)C(C)=CCC[C@@H]34)C2=O)c1O [NAKIJIQUINONE F]
> 10 µg/mL: all assays above

C=C1CCC[C@H]2[C@](C)(Cc3cc(C(=O)OC)c(O)c(NC4=CC(=O)C(O)=C(C[C@]5(C)[C@@H](C)CC[C@]6(C)C(C)=CCC[C@@H]56)C4=O)c3O)[C@@H](C)CC[C@]12C [NAKIJIQUINONE E]
> 10 µg/mL: all assays above
